Test results published in article PMC10821019, “F16 Hybrids Derived from Steviol or Isosteviol Are Accumulated in the Mitochondria of Tumor Cells and Overcome Drug Resistance” (Molecules, 2024).

How the values were obtained:
[1] = test system: A2780cis (resistant derivative of A2780); test: SRB cytotoxicity assay, A2780cis; format: cell-based, human; conditions: for IC50: SRB assay, 72 h treatment, mean n = 3, SD 5-10%; for resistance index (RI): quotient IC50 values A2780cis/A2780
From the text: (§1) All compounds were screened for their cytotoxic activity and tumor cell selectivity using our standard model, previously described, comprising a selection of human tumor cell lines representing different solid tumor entities and non-malignant human fibroblasts (CCD18Co) including the cell line pair A2780/A2780cis, a well-known model of acquired drug resistance.
(§2) Reagents were bought from commercial suppliers and used without further purification. The solvents were dried according to the usual procedures. TLC was performed on silica gel (Macherey-Nagel, detection with UV absorption; Macherey-Nagel, Düren, Germany). […] Numbering in the NMR spectra: 1–20 (diterpene core), 21–24 for O-(CH2)n-N fragment followed by the pyridinium ring, the ethenyl moiety and the indole moiety. […] IR spectra were recorded on a Perkin-Elmer Spectrum Two (UATR Two Unit, Perkin-Elmer GmbH, Rodgau, Germany). […] Both media were supplemented with 10% fetal bovine serum (Biowest, Nuaillé, France) and 1% penicillin-streptomycin (Sigma-Aldrich).
(§3) Cytotoxic activities of compounds were analyzed using the SRB cytotoxicity assay. Cells were seeded in 96-well plates and after 24 h were treated with serial dilutions of compounds for 72 h. All subsequent steps were performed according to the previously described SRB assay protocol. Dose–response curves and calculation of IC50 values, including standard deviations, were carried out using GraphPad Prism8.

[2] = test system: A2780 (ovarian carcinoma); test: SRB cytotoxicity assay, A2780; format: cell-based, human; conditions: for selectivity index 1 (SI 1): CCD18Co/A2780; for IC50: SRB assay, 72 h treatment, mean n = 3, SD 5-10%
From the text: as §1, §2, §3

[3] = test system: HT29 (colorectal carcinoma); test: SRB cytotoxicity assay, HT29; format: cell-based, human; conditions: 72 h treatment, mean n = 3, SD 5-10%
From the text: as §1, §2, §3

[4] = test system: A549 (lung carcinoma); test: SRB cytotoxicity assay, A549; format: cell-based, human; conditions: for selectivity index 2 (SI 2): CCD18Co/A549; for IC50: SRB assay, 72 h treatment, mean n = 3, SD 5-10%
From the text: as §1, §2, §3

[5] = test system: CCD18Co (non-malignant human fibroblasts); test: SRB cytotoxicity assay, CCD18Co; format: cell-based; conditions: 72 h treatment, mean n = 3, SD 5-10%
From the text: as §1, §2, §3

[6] = test system: MCF7 (breast carcinoma); test: SRB cytotoxicity assay, MCF7; format: cell-based, human; conditions: 72 h treatment, mean n = 3, SD 5-10%
From the text: as §1, §2, §3

| Compound | IC50 [1] [µM] | resistance index (RI) [1] | selectivity index 1 (SI 1) [2] | IC50 [2] [µM] | IC50 [3] [µM] | selectivity index 2 (SI 2) [4] | IC50 [4] [µM] | IC50 [5] [µM] | IC50 [6] [µM] | drug resistance in the A2780/A2780cis model, in words ([1]; A2780cis vs A2780) | tumor cell selectivity, in words ([2]; tumor cells vs non-malignant fibroblasts CCD18Co) |
| --- | --- | --- | --- | --- | --- | --- | --- | --- | --- | --- | --- |
| CC12CCC3C(CCC4C(C)(C(=O)OCC[n+]5ccc(C=Cc6c[nH]c7ccccc67)cc5)CCCC34C)(CC1=O)C2.[Br-] (stereo not drawn) [Compound 9, 2-{4-[(E)-2-(1H-Indol-3-yl)-ethenyl]pyridinium-1-yl}-ethyl (4α, 8β, 13β) 13-Methyl-16-oxo-17-norkauran-18-oate Bromide] | 1.54 | 1.66 | 13.96 | 0.93 | 1.56 | 1.42 | 9.09 | 13 | 1.08 |  |  |
| C=C1C[C@@]23CC[C@H]4[C@@](C)(CCC[C@@]4(C)C(=O)OCC[n+]4ccccc4/C=C/c4c[nH]c5ccccc45)[C@@H]2CC[C@]1(O)C3.[Br-] [Compound 12, 2-{2-[(E)-2-(1H-Indol-3-yl)ethenyl]-pyridinium-1-yl}-ethyl (4α)-13-Hydroxykaur-16-en-18-oate Bromide] | 29.4 | 1.14 | 2.95 | 25.7 | 28.5 | 1.40 | 54.3 | 75.9 | 20.2 |  |  |
| C=C1C[C@@]23CC[C@H]4[C@@](C)(CCC[C@@]4(C)C(=O)OCCCC[n+]4ccc(/C=C/c5c[nH]c6ccccc56)cc4)[C@@H]2CC[C@]1(O)C3.[Br-] [Compound 24] | 0.28 | 1.13 | 53.96 | 0.24 | 0.88 | 4.74 | 2.76 | 13.1 | 0.58 | able to reduce or even overcome drug resistance | retained selectivity |
| C=C1C[C@@]23CC[C@H]4[C@@](C)(CCC[C@@]4(C)C(=O)OCCC[n+]4ccccc4/C=C/c4c[nH]c5ccccc45)[C@@H]2CC[C@]1(O)C3.[Br-] [Compound 20, 3-{2-[(E)-2-(1H-Indol-3-yl)-ethenyl]-pyridinium-1-yl}-propyl (4α)-13-Hydroxykaur-16-en-18-oate bromide] | 2.7 | 1.49 | 10.73 | 1.81 | 6.11 | 1.55 | 12.6 | 19.4 | 1.85 |  |  |
| C=C1C[C@@]23CC[C@H]4[C@@](C)(CCC[C@@]4(C)C(=O)OCCC[n+]4cccc(/C=C/c5c[nH]c6ccccc56)c4)[C@@H]2CC[C@]1(O)C3.[Br-] [Compound 18] | 2.71 | 1.19 | 11.82 | 2.28 | 6.66 | 2.84 | 9.47 | 26.9 | 9.47 |  |  |
| C[C@@]12CC[C@@H]3[C@@](CC[C@H]4[C@@]3(C)CCC[C@@]4(C)C(=O)OCCBr)(CC1=O)C2 [Compound 7, 2-Bromoethyl (4α, 8β, 13β) 13-Methyl-16-oxo-17-norkauran-18-oate] | 28.7 | 1.50 | 3.26 | 19.1 | 16.1 | 1.94 | 32.1 | 62.3 | 11.8 |  |  |
| C=C1C[C@@]23CC[C@H]4[C@@](C)(CCC[C@@]4(C)C(=O)OCCCC[n+]4cccc(/C=C/c5c[nH]c6ccccc56)c4)[C@@H]2CC[C@]1(O)C3.[Br-] [Compound 26, 4-{3-[(E)-2-(1H-Indol-3-yl)-ethenyl]-pyridinium-1-yl}butyl (4α)-13-Hydroxykaur-16-en-18-oate Bromide] | 1.82 | 1.42 | 9.14 | 1.28 | 2.43 | 1.69 | 6.94 | 11.7 | 1.98 |  |  |
| C=C1C[C@@]23CC[C@H]4[C@@](C)(CCC[C@@]4(C)C(=O)OCCCBr)[C@@H]2CC[C@]1(O)C3 [Compound 14, 3-Bromopropyl (4α) -13-hydroxykaur-16-en-18-oate] | 28.4 | 1.03 | 1.51 | 27.7 | 29.1 | 1.44 | 29 | 41.7 | 28.1 |  |  |
| CC12CCC3C(CCC4C(C)(C(=O)OCCCBr)CCCC34C)(CC1=O)C2 (stereo not drawn) [Compound 15, 3-Bromopropyl (4α, 8β, 13β) 13-Methyl-16-oxo-17-norkauran-18-oate] | 16.6 | 1.85 | 4.61 | 9 | 15.1 | 1.67 | 24.8 | 41.5 | 12.8 |  |  |
| CC12CCC3C(CCC4C(C)(C(=O)OCC[n+]5ccccc5C=Cc5c[nH]c6ccccc56)CCCC34C)(CC1=O)C2.[Br-] (stereo not drawn) [Compound 13, 2-{2-[(E)-2-(1H-Indol-3-yl)ethenyl]-pyridinium-1-yl}-ethyl (4α, 8β, 13β) 13-Methyl-16-oxo-17-norkauran-18-oate Bromide] | 4.07 | 2.12 | 10.75 | 1.92 | 6.35 | 1.90 | 10.8 | 20.6 | 3.83 |  |  |
| CC12CCC3C(CCC4C(C)(C(=O)OCCCC[n+]5ccccc5C=Cc5c[nH]c6ccccc56)CCCC34C)(CC1=O)C2.[Br-] (stereo not drawn) [Compound 29, 4-{2-[(E)-2-(1H-Indol-3-yl)ethenyl]pyridinium-1-yl}-butyl (4α, 8β, 13β) 13-Methyl-16-oxo-17-norkauran-18-oate Bromide] | 3.22 | 3.05 | 17.61 | 1.06 | 3.81 | 1.88 | 9.86 | 18.6 | 2.05 |  |  |
| C=C1C[C@@]23CC[C@H]4[C@@](C)(CCC[C@@]4(C)C(=O)OCCCC[n+]4ccccc4/C=C/c4c[nH]c5ccccc45)[C@@H]2CC[C@]1(O)C3.[Br-] [Compound 28] | 1.68 | 3.33 | 21.75 | 0.5 | 1.78 | 1.46 | 7.51 | 10.9 | 1.18 |  |  |
| CC12CCC3C(CCC4C(C)(C(=O)OCCC[n+]5cccc(C=Cc6c[nH]c7ccccc67)c5)CCCC34C)(CC1=O)C2.[Br-] (stereo not drawn) [Compound 19, 3-{3[(E)-2-(1H-Indol-3-yl)-ethenyl]-pyridinium-1-yl}-propyl (4α, 8β, 13β) 13-Methyl-16-oxo-17-norkauran-18-oate Bromide] | 1.93 | 1.94 | 15.60 | 0.99 | 5.05 | 1.38 | 11.2 | 15.5 | 2.5 |  |  |
